Among the data in PubChem BioAssay AID2060357 (Molecular Pharmacology Branch, DTP, NCI, 2025) are viability, T/C and IC50 values, retold here.

Where “and” joins values, the source holds several entries; their conditions need not be identical. Equal entries are not always repeated.

For this test, the system named is 292921-168-R-J2-PDC spheroids with HUVEC/MSC, viability. The test is described as follows: Anticancer human tumor 292921-168-R-J2-PDC patient-derived pancreatic carcinoma cell line growth inhibition [TAK]. The following applies: for viability, T/C: stronger effect = lower value. From the text:
Combinatorial screen of targeted agents with TAK-243 and ipatasertib in multi-cell type tumor spheroids
A high-throughput screen of multi-cell type tumor spheroids was designed to identify active combinations of targeted small molecules and TAK-243 or ipatasertib. Complex spheroids include a stromal component modeled by human endothelial cells (HUVEC) and fibroblasts modeled by human mesenchymal stem cells (MSCs). The concentration ranges selected for each drug and investigational agent were based upon clinically achievable concentrations if the clinical Cmax of the agent was known.
Compounds. The drugs and investigational agents: TAK-243 (785004), ipatasertib (767898), everolimus (733504), selumetinib (741078), bortezomib (756655), trametinib (758246), ixazomib (758254), vemurafenib (761431), dabrafenib (764134), sapanisertib (764658), alpelisib (765974), and copanlisib (816437), were obtained from the National Cancer Institute (NCI) Developmental Therapeutics Program Chemical Repository. The FDA-approved anticancer drug set is available from the NCI Developmental Therapeutics Program. […] The stock solutions were prepared in dimethyl sulfoxide (DMSO, Sigma-Aldrich, St. Louis, MO, cat. D2650) at 800-fold the tested concentration and stored at -70 degrees C prior to their use. All drugs and investigational agents were tested over a range starting from a high concentration at or near the clinical Cmax and decreasing in half-log increments. If the clinical Cmax for an agent had not been determined, the highest concentration tested was 10 microM.
NCI60 Cell Culture. NCI60 cell lines were obtained from the NCI Developmental Therapeutics Program Tumor Repository. For each lot of cells, the Repository performed Applied Biosystems AmpFLSTR Identifiler testing with PCR amplification to confirm consistency with the published Identifier STR profile for each cell line. Cells were kept in continuous culture for no more than 20 passages. The optimal seeding densities for each of the cell lines at each time point assessed were determined prior to performing the concentration response studies. Briefly, the NCI60 human tumor lines were grown as monolayers in RPMI 1640 medium supplemented with 10% FBS and 2 mmol/L L-glutamine.
An additional 2 lines were from the NCI60 cell line panel including melanomas, MALME-3M and SK-MEL-2. Pooled donor human umbilical vein endothelial cells (HUVEC, Lonza, cat. CC-2519) and human mesenchymal stem cells (hMSC, Lonza, cat. PT-2501) were purchased from Lonza (Walkersville, MD).
PDMR cell lines were grown in complete medium (DC medium): Dulbecco's modified Eagle's medium (DMEM)/F12 supplemented with 5% fetal bovine serum (FBS), 2 mM L-glutamine, 100 U/mL penicillin and 100 µg/ml streptomycin, 0.4 µg/ml hydrocortisone, 10 ng/ml epidermal growth factor (EGF) recombinant human protein, 24 µg/mL adenine, and 0.1 mg/mL primocin. During culture from frozen stock vials, PDMR cells were cultured in the same medium containing 10 µM Y-27632 (see Table 3). The PDCs were cultured in complete DMEM/F12 media without 10 microM Y-27632 dihydrochloride for at least two passages prior to the screen. The pooled donor HUVEC and hMSC were cultured in endothelial cell growth medium 2 (PromoCell, Heidelberg, Germany, cat. C-22011) and mesenchymal stem cell growth medium 2 (PromoCell, cat. C-28009), respectively. For all experiments, HUVEC and hMSC were used at passages </=5.
For the pre-screen, cell seeding densities were determined from a titration spanning the range from 5,000 to 313 cells per well. The mct-spheroids including 60% malignant cells, 25% HUVEC and 15% MSC dispensed as a mixture into U-bottom Ultra-Low Attachment 384-well plates (Corning, NY)
High-throughput Drug Combination Screening.
Prior to their inoculation into 384-well plates, malignant cells, HUVEC, and hMSC were removed from T flasks using TrypLE express (Thermo Fisher Scientific, cat. 12605036) and harvested by centrifugation for 5 min at 233 x g. […]

Where [1] appears, read: curve of first compound, second compound 0.3 µM.
Setting [2] is: curve of first compound, second compound 0.949 µM.
[3] abbreviates: curve of first compound, second compound 3 µM.
[4] abbreviates: curve of first compound, second compound 9.49 µM.
Where [5] appears, read: curve of first compound, second compound 30 µM.
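Further: spheroids exposed to drugs for seven days before readout.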

A word on the viability, T/C: it is the ratio of treated to control. By IC50 is commonly meant the midpoint of a concentration-inhibition curve. As to `CC(C)n1nc(-c2ccc3oc(N)nc3c2)c2c(N)ncnc21`, the viability, T/C is 101% and 103% (compound 0.000316 µM); 87.1% and 91% (compound 0.001 µM); 75.5% and 74.6% (compound 0.00316 µM); 61.5% and 58.3% (compound 0.01 µM); 40.3% and 43% (compound 0.0316 µM); 31.9% and 32.7% (compound 0.1 µM). For the same molecule, the half-inhibitory concentration (IC50) (curve of compound) was 19.3 nM and 18.6 nM.
`CC(C)CC(NC(=O)CNC(=O)c1cc(Cl)ccc1Cl)B1OC(=O)CC(CC(=O)O)(C(=O)O)O1` (centres undefined): the viability, T/C is 99.7% and 104% (compound 0.000316 µM); 107% and 92.5% (compound 0.001 µM); 105% and 99.2% (compound 0.00316 µM); 107% and 102% (compound 0.01 µM); 37.5% and 35.4% (compound 0.0316 µM); 11.4% and 6.93% (compound 0.1 µM). Also, the IC50 (curve of compound) is 25.5 nM and 24.4 nM.
For `CC(C)CC(NC(=O)CNC(=O)c1cc(Cl)ccc1Cl)B1OC(=O)CC(CC(=O)O)(C(=O)O)O1` (centres undefined) + CC(C)NCC(C(=O)N1CCN(c2ncnc3c2C(C)CC3O)CC1)c1ccc(Cl)cc1, the half-maximal inhibitory concentration (IC50) is, setting by setting: under setting [1], 27.6 nM; under setting [2], 23.9 nM; under setting [3], 23.7 nM; under setting [4], 17.9 nM; under setting [5], less than 0.316 nM. In addition, the viability, T/C (second compound 0.3 µM, first compound 0.000316 µM) was 91.7%; the viability, T/C (second compound 0.3 µM, first compound 0.001 µM) is 86.2%; the viability, T/C (second compound 0.3 µM, first compound 0.00316 µM) is 88.8%; the viability, T/C (second compound 0.3 µM, first compound 0.01 µM) was 86.2%; the viability, T/C (second compound 0.3 µM, first compound 0.0316 µM) was 45.2%; the viability, T/C (second compound 0.3 µM, first compound 0.1 µM) is 10.8%. Also, the viability, T/C by setting is: (second compound 0.949 µM, first compound 0.000316 µM) 84.6%; (second compound 0.949 µM, first compound 0.001 µM) 85.8%; (second compound 0.949 µM, first compound 0.00316 µM) 85.2%; (second compound 0.949 µM, first compound 0.01 µM) 85.5%; (second compound 0.949 µM, first compound 0.0316 µM) 38.8%; (second compound 0.949 µM, first compound 0.1 µM) 11%. Besides, the viability, T/C by setting is: (second compound 3 µM, first compound 0.000316 µM) 75.8%; (second compound 3 µM, first compound 0.001 µM) 80.2%; (second compound 3 µM, first compound 0.00316 µM) 73.3%; (second compound 3 µM, first compound 0.01 µM) 80.2%; (second compound 3 µM, first compound 0.0316 µM) 40.9%; (second compound 3 µM, first compound 0.1 µM) 9.38%. The viability, T/C is 62% (second compound 9.49 µM, first compound 0.000316 µM); 60.3% (second compound 9.49 µM, first compound 0.001 µM); 60.4% (second compound 9.49 µM, first compound 0.00316 µM); 68.2% (second compound 9.49 µM, first compound 0.01 µM); 37.6% (second compound 9.49 µM, first compound 0.0316 µM); 6.83% (second compound 9.49 µM, first compound 0.1 µM). In addition, the viability, T/C is 41.4% (second compound 30 µM, first compound 0.000316 µM); 41.2% (second compound 30 µM, first compound 0.001 µM); 42.4% (second compound 30 µM, first compound 0.00316 µM); 44.2% (second compound 30 µM, first compound 0.01 µM); 31.8% (second compound 30 µM, first compound 0.0316 µM); 7.05% (second compound 30 µM, first compound 0.1 µM).
For the molecule `CC(=O)Nc1cccc(-n2c(=O)n(C3CC3)c(=O)c3c(Nc4ccc(I)cc4F)n(C)c(=O)c(C)c32)c1` + CC(C)NCC(C(=O)N1CCN(c2ncnc3c2C(C)CC3O)CC1)c1ccc(Cl)cc1, the concentration for half-maximal inhibition (IC50) by setting is: under setting [1], 0.45 nM; under setting [2], 0.337 nM; under setting [3], 0.209 nM; under setting [4], 0.11 nM; under setting [5], less than 0.0949 nM. The viability, T/C reads like this: (second compound 0.3 µM, first compound 94.9 pM) 74.9%; (second compound 0.3 µM, first compound 0.0003 µM) 59.5%; (second compound 0.3 µM, first compound 0.000949 µM) 32.6%; (second compound 0.3 µM, first compound 0.003 µM) 25.7%; (second compound 0.3 µM, first compound 0.00949 µM) 19.8%; (second compound 0.3 µM, first compound 0.03 µM) 13.9%. Moreover, the viability, T/C is 70.5% (second compound 0.949 µM, first compound 94.9 pM); 51.8% (second compound 0.949 µM, first compound 0.0003 µM); 35.6% (second compound 0.949 µM, first compound 0.000949 µM); 26.6% (second compound 0.949 µM, first compound 0.003 µM); 17.8% (second compound 0.949 µM, first compound 0.00949 µM); 13.1% (second compound 0.949 µM, first compound 0.03 µM). The viability, T/C (second compound 3 µM, first compound 94.9 pM) is 63.8%; the viability, T/C (second compound 3 µM, first compound 0.0003 µM) is 44%; the viability, T/C (second compound 3 µM, first compound 0.000949 µM) is 28.8%; the viability, T/C (second compound 3 µM, first compound 0.003 µM) was 22.5%; the viability, T/C (second compound 3 µM, first compound 0.00949 µM) was 16.6%; the viability, T/C (second compound 3 µM, first compound 0.03 µM) is 12.3%. Besides, the viability, T/C is, setting by setting: (second compound 9.49 µM, first compound 94.9 pM) 51.4%; (second compound 9.49 µM, first compound 0.0003 µM) 39%; (second compound 9.49 µM, first compound 0.000949 µM) 25.4%; (second compound 9.49 µM, first compound 0.003 µM) 18.8%; (second compound 9.49 µM, first compound 0.00949 µM) 14.3%; (second compound 9.49 µM, first compound 0.03 µM) 10.7%. The viability, T/C is 34.9% (second compound 30 µM, first compound 94.9 pM); 26.6% (second compound 30 µM, first compound 0.0003 µM); 20.3% (second compound 30 µM, first compound 0.000949 µM); 16% (second compound 30 µM, first compound 0.003 µM); 12.2% (second compound 30 µM, first compound 0.00949 µM); 9.91% (second compound 30 µM, first compound 0.03 µM).
